Data as given in patent publication USRE47493E1, “Substituted bicyclic dihydropyrimidinones and their use as inhibitors of neutrophil elastase activity” (Boehringer Ingelheim International GmbH, priority 2014, dated 2019).
In brackets after ≈: the same amount, converted by molar mass.

Columns and labels:
[1] = Assay for the Determination of Metabolic Stability with Human Hepatocytes; format: in vitro ADME; conditions: scaled with well stirred model
Procedure: Assay for the Determination of Metabolic Stability with Human Hepatocytes
The metabolic degradation of the test compound is assayed in a human hepatocyte suspension. Human hepatocytes (typically cryopreserved) are incubated in an appropriate buffer system (e.g. Dulbecco's modified eagle medium plus 3.5 μg glucagon/500 mL, 2.5 mg insulin/500 mL and 3.75 mg/500 mL hydrocortison) containing 5% species serum. Following a (typically) […] preincubation in an incubator (37° C., 10% CO2), 5 μl of test compound solution (80 μM; from 2 mM stock solution in DMSO diluted 1:25 with medium) are added into 395 μl hepatocyte suspension (cell density in the range 0.25-5*10^6 cells/mL, typically 1*10^6 cells/mL; final concentration of test compound 1 μM, final DMSO concentration […]). The cells are incubated for six hours (incubator, orbital shaker) and samples (25 μl) are taken at 0, 0.5, 1, 2, 4 and 6 hours. Samples are transferred into acetonitrile and pelleted by centrifugation (5 min). The supernatant is transferred to a new 96-deepwell plate, evaporated under nitrogen and resuspended. The decline of parent compound is analyzed by LC-MS/MS.
The intrinsic clearance CL_[…] is calculated as follows: CL_[…]=Dose/AUC=(C0/CD)/(AUD+clast/k)*1′000/60 (C0: initial concentration in the incubation [μM], CD: cell density of vital cells [10^6 cells/mL], AUD: area under the data [μM*h], clast: concentration of last data point [μM], k: slope of the regression line for parent decline [h^−1])
The calculated in vitro hepatic intrinsic clearance can be scaled up to the intrinsic in vivo hepatic clearance and used to predict hepatic in vivo blood clearance (CL) by the use of a is liver model (well stirred model): CL_[…]_INVIVO [ml/min/kg]=(CL_[…] [μL/min/10^6 cells]* hepatocellularity[10^6 cells/g liver]*liver factor[g/kg bodyweight])/1′000 CL[ml/min/kg]=CL_[…]_INVIVO [ml/min/kg]*hepatic blood flow [ml/min/kg]/(CL_[…]_INVIVO [ml/min/kg]+hepatic blood flow [ml/min/kg]) Qh[%]=CL[ml/min/kg]/hepatic blood flow[ml/min/kg]) (Hepatocellularity, human: 120*10^6 cells/g liver; lver factor, human: 25.7 g/kg bodyweight; blood flow, human: 21 ml/(min*kg))
The predicted human hepatic in vivo blood clearance (CL) of selected compounds in the metabolic stability assay described above are listed in Table 16.

[2] = Assay for Determination of Aqueous Solubility; format: physicochemical; conditions: McIlvaine buffer pH 6.8, 2.5% DMSO; for solubility at 24 h: McIlvaine buffer pH 6.8 with 2.5% DMSO, aqueous buffer, kinetic from dmso stock; for Aqueous solubility: 24 h
Procedure: Assay for Determination of Aqueous Solubility
The aqueous solubility of a compound is determined by comparing the amount dissolved in aqueous buffer (containing 2.5% DMSO) to the amount dissolved in an acetonitrile/water (1/1) solution. Starting from a 10 mM DMSO stock solution, aliquots are diluted with acetonitrile/water (1/1) and Mcllvaine buffer pH 6.8, respectively. After 24 h of shaking, the solutions or suspensions are filtered and analyzed by LC-UV. The amount dissolved in buffer is compared to the amount dissolved in the acetonitrile/water (1/1) solution. Solubility is measured from 0.001 to 0.125 mg/ml at a DMSO concentration of 2.5%. If more than 90% of the compound is dissolved in buffer, the value is marked with “>”.

[3] = Assay for Determination of Drug Transport Across Human CACO-2 Cells; format: in vitro ADME; conditions: human; for efflux ratio at 2 h, 10 nM: pH 7.2, Caco-2, PEBA/PEAB; for Papp A→B at 10 nM: Caco-2, apical-to-basal, read-out: PEAB; for Papp A→B at 10 nM / Papp B→A at 10 nM: pH 7.2, 37° C.; for Papp B→A at 10 nM: Caco-2, basal-to-apical, read-out: PEBA
Source text: (§1) Assay for Determination of Drug Transport Across Human CACO-2 Cells
(§2) The assay provides information on the potential of a compound to pass the cell membrane, on the extent of oral absorption as well as on whether the compound is actively transported by uptake and/or efflux transporters. For the measurement of permeability across polarized, confluent human cancer colon carcinoma cells 2 (Caco-2) cell monolayers grown on permeable filter supports are used as the in vitro absorption model. Apparent permeability coefficients (PE) of the compounds across the Caco-2 monolayers are measured (pH 7.2, 37° C.) in apical-to-basal (AB) (absorptive) and basal-to-apical (BA) (secretory) transport direction. AB permeability (PEAB) represents drug absorption from the intestine into the blood and BA permeability (PEBA) drug secretion from the blood back into the intestine via both passive permeability as well as active transport mechanisms mediated by efflux and uptake transporters that are expressed on the Caco-2 cells. The compounds are assigned to permeability/absorption classes by comparison of the AB permeabilities with the AB permeabilities of reference compounds with known in vitro permeability and oral absorption in the human. Identical or similar permeabilities in both transport directions indicate passive permeation, vectorial permeability points to additional active transport mechanisms. […] Active transport is concentration-dependently saturable.
(§3) Caco-2 cells (1−2*10^5 cells/cm^2 area) are seeded on filter inserts (Costar transwell polycarbonate or PET filters, […] pore size) and cultured (DMEM) for 10 to 25 days. Compounds are dissolved in appropriate solvent (like DMSO, 1-20 mM stock solutions). Stock solutions are diluted with HTP-4 buffer (128.13 mM NaCl, 5.36 mM KCl, 1 mM MgSO4, 1.8 mM CaCl2, 4.17 mM NaHCO3, 1.19 mM Na2HPO4×7H2O, 0.41 mM NaH2PO4×H2O, 15 mM HEPES, 20 mM glucose, pH 7.2) to prepare the transport solutions (typically […] compound, final DMSO <=0.5%). The transport solution (TL) is applied to the apical or basolateral donor side for measuring A-B or B-A permeability (3 filter replicates), respectively. The receiver side contains HTP-4 buffer supplemented with 2% BSA. Samples are collected at the start and end of experiment from the donor and at various time intervals for up to 2 hours also from the receiver side for concentration measurement by LC-MS/MS or scintillation counting. Sampled receiver volumes are is replaced with fresh receiver solution.
(§4) The apparent permeability coefficients (PEAB and PEBA) and efflux ratios (PEBA/PEAB) of selected compounds in the Caco-2 drug transport assay described above are listed in Table 17.

[4] = Assay for the Determination of Metabolic Stability with Human Liver Microsomes; format: in vitro ADME; conditions: pooled human liver microsomes, 37° C., NADPH; for half-life at 1 nM: pH 7.6, read-out: t1/2 INVITRO
Procedure: Assay for the Determination of Metabolic Stability with Human Liver Microsomes
The metabolic degradation of the test compound is assayed at 37° C. with pooled human liver microsomes. The final incubation volume of […] per time point contains TRIS buffer pH 7.6 (0.1 M), magnesium chloride (5 mM), microsomal protein (1 mg/ml) and the test compound at a final concentration of […]. Following a short preincubation period at 37° C., the reactions are initiated by addition of beta-nicotinamide adenine dinucleotide phosphate, reduced form (NADPH, 1 mM) and terminated by transfering an aliquot into acetonitrile after different time points. Additionally, the NADPH-independent degradation is monitored in incubations without NADPH, terminated at the last time point. The rol remaining test compound after NADPH independent incubation is reflected by the parameter c(control) (metabolic stability). The quenched incubations are pelleted by centrifugation (10′000 g, 5 min) An aliquot of the supernatant is assayed by LC-MS/MS for the amount of parent compound.
The half-life (t1/2 INVITRO) is determined by the slope of the semilogarithmic plot of the concentration-time profile. The intrinsic clearance (CL_[…]) is calculated by considering the amount of protein in the incubation: CL_[…][μl/min/mg protein]=(ln 2/(half-life [min]*protein content [mg/ml]))*1′000.
The half-life (t1/2 INVITRO) values of selected compounds in the metabolic stability assay described above are listed in Table 15.

[5] = test system: Caco-2 cell monolayers; assay: Assay for Determination of Drug Transport Across Human CACO-2 Cells; format: in vitro ADME
Source text: as §1, §2, §3, §4

[6] = target: Human neutrophil elastase (Homo sapiens (Human), UniProt P08246); assay: Human Neutrophil Elastase Assay; format: biochemical; conditions: human neutrophil elastase, substrate MeOSuc-Ala-Ala-Pro-Val-AMC, pH 7.5; read-out: IC50
Procedure: Human Neutrophil Elastase Assay
Materials: Human neutrophil elastase was purchased from Calbiochem (Cat.No.: 324681) and the elastase substrate MeOSuc-Ala-Ala-Pro-Val-AMC from Bachem (Cat.No.: I-1270). All other materials were of the highest grade commercially available.
The following buffers were used: Compound buffer: 100 mM Tris, 500 mM NaCl, adjusted to pH 7.5; Assay buffer: 100 mM Tris, 500 mM NaCl, adjusted to pH 7.5, containing 0.01% BSA.
Assay conditions: Test compounds were prediluted in DMSO and subsequently in compound buffer (5% DMSO final). 5 μL of these compound dilutions were mixed with 10 μl Neutrophil elastase (9 ng/ml in assay buffer) in a black 384 well OptiPlate (Perkin Elmer, Cat No.: 6007270) and incubated for 15 min at room temperature. Subsequently 10 μL substrate solution in assay buffer were added (250 nM final concentration) and the plates were incubated for 60 min at room temperature. After inactivation of the enzyme, fluorescence intensities were measured at 380 nm excitation and 460 nm emission wavelengths.
Each plate contains wells with a high value control (DMSO+enzyme+substrate) and wells with a low value control (DMSO+inactivated enzyme+substrate). IC50 values were estimated using a sigmoidal concentration response curve with variable slope. Means of low values were taken as 0%, means of high values as 100%.

Human neutrophil elastase, sequence (P08246 30-267): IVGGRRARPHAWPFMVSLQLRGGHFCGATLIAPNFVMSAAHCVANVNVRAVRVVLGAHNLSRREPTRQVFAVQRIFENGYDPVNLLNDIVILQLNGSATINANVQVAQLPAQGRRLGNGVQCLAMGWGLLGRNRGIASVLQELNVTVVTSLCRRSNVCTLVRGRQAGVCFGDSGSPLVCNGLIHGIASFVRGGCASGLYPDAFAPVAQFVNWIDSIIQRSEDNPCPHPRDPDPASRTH

| SMILES | CL (predicted human hepatic in vivo blood clearance) [1] | solubility at 24 h [2] | half-life at 1 nM [4] | Aqueous solubility [2] | t1/2 INVITRO [4] | other results |
| --- | --- | --- | --- | --- | --- | --- |
| CN1C(=O)N(c2ccnc(C(F)(F)F)c2)C2=C(C(=O)CCC2)C1c1ccc(C#N)cc1S(C)(=O)=O (centres unmarked) [Example 64, 4-(3-Methyl-2,5-dioxo-1-(2-(trifluoromethyl)pyridin-4-yl)-1,2,3,4,5,6,7,8-octahydroquinazolin-4-yl)-3-(methylsulfonyl)benzonitrile] | 0 mL/min/kg | 8 µg/mL (≈ 15.9 µM) | > 2.17 h |  |  | efflux ratio at 2 h, 10 nM [3]: 4.4; Papp A→B at 10 nM [3]: 17.1 ×10⁻⁶ cm/s; Papp B→A at 10 nM [3]: 75.7 ×10⁻⁶ cm/s |
| CN1C(=O)N(c2cccc(C(F)(F)F)c2)C2=C(C(=O)CCC2)[C@H]1c1ccc(C#N)cc1S(C)(=O)=O [Example 48, (S)-4-(3-Methyl-2,5-dioxo-1-(3-(trifluoromethyl)phenyl)-1,2,3,4,5,6,7,8-octahydroquinazolin-4-yl)-3-(methylsulfonyl)benzonitrile] | 3 mL/min/kg |  | > 2.17 h |  |  | efflux ratio at 2 h, 10 nM [3]: 1.6; Papp A→B at 10 nM [3]: 60 ×10⁻⁶ cm/s; Papp B→A at 10 nM [3]: 98 ×10⁻⁶ cm/s |
| CS(=O)(=O)c1cc(C#N)ccc1[C@@H]1C2=C(CCCC2=O)N(c2cccc(C(F)(F)F)c2)C(=O)N1S(C)(=O)=O [Example 68, (S)-3-(Methylsulfonyl)-4-(3-(methylsulfonyl)-2,5-dioxo-1-(3-(trifluoromethyl)phenyl)-1,2,3,4,5,6,7,8-octahydroquinazolin-4-yl)benzonitrile] | 0 mL/min/kg | 57 µg/mL (≈ 100 µM) | > 2.17 h |  |  |  |
| CS(=O)(=O)c1cc(C#N)ccc1[C@@H]1C2=C(CCCC2=O)N(c2cccc(C(F)(F)F)c2)C(=O)N1C(N)=O [Example 75, (S)-4-(4-Cyano-2-(methylsulfonyl)phenyl)-2,5-dioxo-1-(3-(trifluoromethyl)phenyl)-1,2,5,6,7,8-hexahydroquinazoline-3(4H)-carboxamide] |  | 79 µg/mL (≈ 148 µM) | > 2.17 h |  |  |  |
| CS(=O)(=O)c1cc(C#N)ccc1[C@@H]1C2=C(CCCC2=O)N(c2cccc(C(F)(F)F)c2)C(=O)N1C(=O)NCC(F)F [Example 75.7] | 0 mL/min/kg |  |  | 905 µg/mL | >2.17 h | Efflux ratio ([5]; Caco-2, PEBA/PEAB): 10.8; PEAB ([5]; Caco-2, apical-to-basal, pH 7.2, 37° C.): 8.4 ×10⁻⁶ cm/s; PEBA ([5]; Caco-2, basal-to-apical, pH 7.2, 37° C.): 90.6 ×10⁻⁶ cm/s |
| N#Cc1ccc(C2C3=C(CCCC3=O)N(c3cccc(C(F)(F)F)c3)C(=O)N2C(=O)NCCO)cc1 (centres unmarked) [Example 39.3] |  |  |  | 6 µg/mL | >2.17 h |  |
| CS(=O)(=O)CCNC(=O)N1C(=O)N(c2cccc(C(F)(F)F)c2)C2=C(C(=O)CCC2)C1c1ccc(C#N)cc1 (centres unmarked) [Example 39.19] | 0 mL/min/kg |  |  | 9 µg/mL | >2.17 h |  |
| CN(CCO)C(=O)CN1C(=O)N(c2cccc(C(F)(F)F)c2)C2=C(C(=O)CCC2)C1c1ccc(C#N)cc1S(C)(=O)=O (centres unmarked) [Example 62.3] |  |  |  |  |  | IC50 [6]: 1.3 nM |
| COC1CCN(C(=O)CN2C(=O)N(c3cccc(C(F)(F)F)c3)C3=C(C(=O)CCC3)C2c2ccc(C#N)cc2S(C)(=O)=O)CC1 (centres unmarked) [Example 62.8] |  |  |  |  |  | IC50 [6]: 11.6 nM |
